Where a name gives a salt, the structure may show the parent alone. Read-outs that look alike come from different tables or passages of the source.
Legend:
NIH-3T3 [1] = test: Calcein AM cytotoxicity, NIH-3T3; conditions: read-out: Cytotoxicity IC50, NIH-3T3; 72 hours incubation, Calcein AM; highest concentration […]
Description: (§1) One of the parameters used, as the basis for cytotoxicity assays, is the metabolic activity of viable cells. For example, a microtiter assay, which uses the Calcein AM, is now widely used to quantitate cell proliferation and cytotoxicity. […] Because only metabolically active cells cleave Calcein AM, these assays detect viable cells exclusively. The quantity of reduced Calcein AM corresponds to the number of vital cells in the culture.
(§2) Mouse fibroblasts NIH3T3; mouse immortalized bone marrow macrophages B2.4 and B10A.4, and BJ (human foreskin fibroblasts) were used for routine screening of compounds. The cells were maintained in Nunc/Corning 80 cm^2 plastic tissue culture flasks and cultured in cell culture medium (DMEM with 5 g/l glucose, 2 mM glutamine, 100 U/ml penicillin, 100 μg/ml streptomycin, 10% fetal calf serum and sodium bicarbonate).
(§3) The cell suspensions that were prepared and diluted according to the particular cell type and the expected target cell density (2.500-30.000 cells per well based on cell growth characteristics) were added by pipette (80 μl) into 96/well microtiter plates. Inoculates were allowed a pre-incubation period of 24 hours at 37° C. and 5% CO2 for stabilisation. Four-fold dilutions of the intended test concentration were added at time zero in 20 μl aliquots to the microtiter plate wells. Usually, the compound tested was evaluated at six 4-fold dilutions. […] All compound concentrations were examined in duplicates. Incubations of cells with the tested compounds lasted for 72 hours at 37° C., in 5% CO2 atmosphere and 100% humidity. At the end of the incubation period, the cells were assayed by using Calcein AM. Ten microliters of the stock solution were pipetted into each well and incubated for 1 hour. Fluorescence (FD) was measured with the Labsystem FIA Reader Fluoroscan Ascent (UK).

NIH3T3 fibroblasts = test: Peroxidation of membrane lipids, MDA by TBA method; format: cell-based, mouse; conditions: FW = fresh weight
Experimental: A typical symptom associated with aging is the direct consequence of increased concentrations of reactive oxygen species and lipid peroxidation. […] MDA levels were measured using thiobarbituric acid (TBA method). […] The crude extract was centrifuged at 10,000×g for 5 minutes and 100 μl aliquots of the supernatant were mixed with 100 μl of 0.5% (w/v) TBA containing 0.1% (w/v) trichloroacetic acid. The resulting solution was then incubated for 30 min at 95° C. The samples were rapidly cooled on ice and centrifuged for 5 minutes at 1000×g. […] The newly prepared derivatives of the general formula thus have a protective function against the negative effects of reactive oxygen species that accumulate strongly in the tissues.

[2] = system: BJ (human foreskin fibroblasts); test: Calcein AM cytotoxicity, BJ; conditions: read-out: Cytotoxicity IC50, BJ; 72 hours incubation, Calcein AM; highest concentration […]
Description: as §1, §2, §3

B10A.4 [3] = test: Calcein AM cytotoxicity, B10A.4 (first column); conditions: read-out: Cytotoxicity IC50, B10A.4; 72 hours incubation, Calcein AM; highest concentration […]
Description: as §1, §2, §3

[4] = Calcein AM cytotoxicity, NIH-3T3; conditions: mouse, NIH-3T3 fibroblasts
Description: as §1, §2, §3

[5] = Calcein AM cytotoxicity, BJ; conditions: human, BJ foreskin fibroblasts
Description: as §1, §2, §3

[6] = Radical scavenging activity determined by ORAC; conditions: relative to trolox; Mean ± SD (n = 3)
Experimental: The ability of compounds to scavenge free radicals in vitro was determined by Oxygen Radical Absorbance Capacity (ORAC) method. In brief, fluorescein (100 μl, […]) and 25 μl of compound solution were added into each working well in a 96-well microplate preincubated at 37° C. Thereafter, 25 μL of 250 mM AAPH was quickly added, microplate was shaken for 5 s and the fluorescence (Ex. 485 nm, Em. 510 nm) was read every 3 min over 90 min by using microplate reader Infinite 200 (TECAN, Switzerland). The net area under the curve was used to express antioxidant activity relative to trolox which was used as a standard.

[7] = Calcein AM cytotoxicity, B10A.4 (first column); conditions: mouse, B10A.4 immortalized bone marrow macrophages
Description: as §1, §2, §3

NIH-3T3 [8] = system: NIH-3T3
Description: as §1, §2, §3

B10A.4 [9] = system: B10A.4
Description: as §1, §2, §3

[10] = system: BJ (human foreskin fibroblasts)
Description: as §1, §2, §3

[11] = system: Rabbits (New Zealand Albino breed); conditions: New Zealand Albino, rabbit, in vivo, 4 h
Experimental: The test substance 114 was tested in Animal skin irritation test. Rabbits (New Zealand Albino breed) were used for the test. The test was performed according to ČSN EN ISO 10993 (Březen 2014): Biologické hodnoceni zdravotnických prostředků—část 10: Zkoušky dráždivosti a senzibilizace kůže, článek 6.3 Zkouška dráždivosti na zviřatech (Biological evaluation of medical devices—Part 10: Tests for irritation and delayed-type hypersensitivity). A dose 0.5 g of the test substance was applied to the skin of the back on each side of each rabbit. […] At first the one rabbit (test animal. No. 16) was used. Two other rabbits (rabbit No. 17 and No. 18) were used in confirmatory test. At the end of the contact time (4 hours) the dressings were removed and animals were examined for signs of erythema and oedema, and the response was evaluated at 1, 24, 48 and 72 hours afterpatches removal.

IC50 (NIH-3T3 [8]) [µM]	IC50 (B10A.4 [9]) [µM]	IC50 [10] [µM]	Compound	MDA (NIH3T3 fibroblasts) [nmol/g FW]	also measured
> 167	> 167	> 167	CCN(CC)c1nc(NCc2ccc(C)o2)c2ncn(C3CCCO3)c2n1 (stereo not shown) [Compound 47]	12.5	–
> 167	> 167	> 167	COc1coc(CNc2nc(NCCN(C)C)nc3c2ncn3C2CCCO2)c1 (stereo not shown) [Compound 58]	11.4	–
> 167	> 167	> 167	CNc1nc(NCc2ccc(OC)o2)c2ncn(C3CCCO3)c2n1 (stereo not shown) [Compound 59]	11.5	–
> 167	> 167	> 167	CCNc1nc(NCc2ccc(OC)o2)c2ncn(C3CCCO3)c2n1 (stereo not shown) [Compound 60]	12.2	–
> 167	> 167	> 167	CCNc1nc(NCc2ccc(O)cc2)c2ncn(C3CCCO3)c2n1 (stereo not shown) [Compound 75]	11.7	–
> 167	> 167	> 167	CCN(CC)c1nc(NCc2cccc(OC)c2)c2ncn(C3CCCO3)c2n1 (stereo not shown) [Compound 82]	10.9	–
> 167	> 167	> 167	CCNc1nc(NCc2ccc(OC)cc2)c2ncn(C3CCCO3)c2n1 (stereo not shown) [Compound 85]	11.1	–
> 167	> 167	> 167	CCN(CC)c1nc(NCc2ccc(OC)cc2)c2ncn(C3CCCO3)c2n1 (stereo not shown) [Compound 87]	10.4	–
> 167	> 167	> 167	CCN(CC)c1nc(NCC=C(C)C)c2ncn(C3CCCO3)c2n1 (stereo not shown) [Compound 93]	10.5	–
> 167	> 167	> 167	C/C(=C\CNc1nc(NCCN(C)C)nc2c1ncn2C1CCCO1)CO (stereo not shown) [Compound 99]	10.2	–
> 167	> 167	> 167	CCNc1nc(NC/C=C(/C)CO)c2ncn(C3CCCO3)c2n1 (stereo not shown) [Compound 101]	10.6	–
> 167	> 167	> 167	CCN(CC)c1nc(NC/C=C(/C)CO)c2ncn(C3CCCO3)c2n1 (stereo not shown) [Compound 103]	10.1	–
> 167	> 167	> 167	C/C(=C/CNc1nc(NCCN(C)C)nc2c1ncn2C1CCCO1)CO (stereo not shown) [Compound 104]	9.6	–
> 167	> 167	> 167	CNc1nc(NCCC(C)CO)c2ncn(C3CCCO3)c2n1 (stereo not shown) [Compound 105]	10.6	–
> 167	> 167	> 167	CC(CO)CCNc1nc(N(C)C)nc2c1ncn2C1CCCO1 (stereo not shown) [Compound 107]	10.3	–
94.1	–	108	Oc1ccccc1CNc1ncnc2nc[nH]c12 [ortho-topolin, reference compound]	–	–

More lines, now with the values behind:

Compound	IC50 (NIH-3T3 [8]) [µM]	IC50 (B10A.4 [9]) [µM]	IC50 [10] [µM]	MDA (NIH3T3 fibroblasts) [nmol/g FW]	also measured
CN(C)c1nc(NCc2ccco2)c2ncn(C3CCO3)c2n1 (stereo not shown) [Compound 3]	–	–	–	12.4	IC50 (NIH-3T3 [1]): > 167 µM; IC50 [2]: > 167 µM; IC50 (B10A.4 [3]): > 167 µM
CCN(CC)c1nc(NCc2ccccc2)c2ncn(C3CCO3)c2n1 (stereo not shown) [Compound 9]	–	–	–	12.2	IC50 (NIH-3T3 [1]): > 167 µM; IC50 [2]: > 167 µM; IC50 (B10A.4 [3]): > 167 µM
CN(C)c1nc(NCc2ccco2)c2ncn(C3CCCO3)c2n1 (stereo not shown) [Compound 30, 2-(Dimethylamino)-6-furfurylamino-9-(tetrahydrofuran-2-yl)-9H-purine]	–	–	–	12.6	IC50 at 72 h [4]: > 167 µM; IC50 at 72 h [5]: > 167 µM; ORAC (compound/trolox) [6]: 0.292 ± 0.006; IC50 at 72 h [7]: > 167 µM
CNc1nc(NCc2cc(C)co2)c2ncn(C3CCCO3)c2n1 (stereo not shown) [Compound 39]	> 167	> 167	> 167	11.4	–
CNc1nc(NCc2ccccc2)c2ncn(C3CCCO3)c2n1 (stereo not shown) [Compound 64, 2-(Methylamino)-6-benzylamino-9-(tetrahydrofuran-2-yl)-9H-purine]	–	–	–	–	ORAC (compound/trolox) [6]: 0.24 ± 0.001
CN(C)c1nc(NCc2cccc(O)c2)c2ncn(C3CCCO3)c2n1 (stereo not shown) [Compound 71, 2-(Dimethylamino)-6-(3-hydroxybenzylamino)-9-(tetrahydrofuran-2-yl)-9H-purine]	–	–	–	–	ORAC (compound/trolox) [6]: 5.212 ± 0.238
CN(C)c1nc(NCc2ccc(O)cc2)c2ncn(C3CCCO3)c2n1 (stereo not shown) [Compound 76, 2-(Dimethylamino)-6-[(4-hydroxybenzyl)amino]-9-(tetrahydrofuran-2-yl)-9H-purine]	–	–	–	–	ORAC (compound/trolox) [6]: 0.192 ± 0.005
CNc1nc(NCc2ccc(OC)cc2)c2ncn(C3CCCO3)c2n1 (stereo not shown) [Compound 84, 2-(Methylamino)-6-[(4-methoxybenzyl)amino]-9-(tetrahydrofuran-2-yl)-9H-purine]	–	–	–	10.6	IC50 at 72 h [4]: > 167 µM; IC50 at 72 h [5]: > 167 µM; IC50 at 72 h [7]: > 167 µM
COc1cc(CNc2nc(N(C)C)nc3c2ncn3C2CCCO2)ccc1O (stereo not shown) [Compound 89, 2-(Dimethylamino)-6-[(4-hydroxy-3-methoxybenzyl)amino]-9-(tetrahydrofuran-2-yl)-9H-purine]	–	–	–	–	ORAC (compound/trolox) [6]: 4.359 ± 0.183
CCN(CC)c1nc(NCCC(C)CO)c2ncn(C3CCCO3)c2n1 (stereo not shown) [Compound 108]	> 167	> 167	> 167	9.7	–
CNc1nc(NCc2ccco2)c2ncn(C3CCCCO3)c2n1 (stereo not shown) [Compound 110, 2-(Methylamino)-6-furfurylamino-9-(tetrahydro-2H-pyran-2-yl)-9H-purine]	–	–	–	–	ORAC (compound/trolox) [6]: 0.205 ± 0.032
CCNc1nc(NCc2ccco2)c2ncn(C3CCCCO3)c2n1 (stereo not shown) [Compound 111, 2-(ethylamino)-6-furfurylamino-9-(tetrahydro-2H-pyran-2-yl)-9H-purine]	–	–	–	10.3	IC50 at 72 h [4]: > 167 µM; IC50 at 72 h [5]: > 167 µM; IC50 at 72 h [7]: > 167 µM
CCNc1nc(NCc2occc2C)c2ncn(C3CCCCO3)c2n1 (stereo not shown) [Compound 119]	–	–	–	9.7	IC50 (NIH-3T3 [1]): > 167 µM; IC50 [2]: > 167 µM; IC50 (B10A.4 [3]): > 167 µM
Cc1coc(CNc2nc(NCCN(C)C)nc3c2ncn3C2CCCCO2)c1 (stereo not shown) [Compound 127]	–	–	–	10.4	IC50 (NIH-3T3 [1]): > 167 µM; IC50 [2]: > 167 µM; IC50 (B10A.4 [3]): > 167 µM
CNc1nc(NCc2ccc(C)o2)c2ncn(C3CCCCO3)c2n1 (stereo not shown) [Compound 128, 2-(Methylamino)-6-[(5-methylfurfuryl)amino]-9-(tetrahydro-2H-pyran-2-yl)-9H-purine]	–	–	–	–	ORAC (compound/trolox) [6]: 0.461 ± 0.003
Cc1ccc(CNc2nc(NCCN(C)C)nc3c2ncn3C2CCCCO2)o1 (stereo not shown) [Compound 132]	–	–	–	10.7	IC50 (NIH-3T3 [1]): > 167 µM; IC50 [2]: > 167 µM; IC50 (B10A.4 [3]): > 167 µM
CN(C)c1nc(NCc2cccc(O)c2)c2ncn(C3CCCCO3)c2n1 (stereo not shown) [Compound 155, 2-(Dimethylamino)-6-[(3-hydroxybenzyl)amino]-9-(tetrahydro-2H-pyran-2-yl)-9H-purine]	–	–	–	–	ORAC (compound/trolox) [6]: 2.422 ± 0.107
CN(C)c1nc(NCc2ccc(O)cc2)c2ncn(C3CCCCO3)c2n1 (stereo not shown) [Compound 160, 2-(Dimethylamino)-6-[(4-hydroxybenzyl)amino]-9-(tetrahydro-2H-pyran-2-yl)-9H-purine]	–	–	–	–	ORAC (compound/trolox) [6]: 0.728 ± 0.016
CCCCCCCCCCCCOS(=O)(=O)O [lauryl sulfate, reference compound]	–	–	–	–	Primary Irritation Index [11]: 1.67

Source: patent US11643413B2, “9-(2-oxacycloalkyl)-9H-purine-2,6-diamine derivatives and their use for the treatment of skin disorders” (UNIVERZITA PALACKEHO V OLOMOUCI, priority 2017, dated 2023)
